Data on 14 molecules can be found in patent US6624176B2, “Heteroaromatic substituted amides with antagonistic activity to neurokinin 1 receptors” (Hoffmann-La Roche Inc., priority 2001, dated 2003).

Tested on in one data set: not given
Assay: not given
Details: not given
In general, melting point refers to the temperature, or range, at which the solid turns liquid. `Cc1ccccc1-c1cc(-n2cncn2)ncc1C(=O)N(C)Cc1cc(C(F)(F)F)cc(C(F)(F)F)c1` [Example 1, N-(3,5-Bis-trifluoromethyl-benzyl)-N-methyl-4-o-tolyl-6-[1,2,4]triazol-1-yl-nicotinamide] registered a melting point of 91 to 93 °C.
`Cc1ccccc1-c1cc(N2CCC(O)CC2)ncc1C(=O)N(C)Cc1cc(C(F)(F)F)cc(C(F)(F)F)c1` [Example 3, 4-Hydroxy-4′-o-tolyl-3,4,5,6-tetrahydro-2H-[1,2′]bipyridinyl-5′-carboxylic acid (3,5-bis-trifluoromethyl-benzyl)-methyl-amide] displayed a melting point of 150 to 152 °C.

For the next data set, the target named is T1, human NK1 receptor (Homo sapiens, UniProt P25103).
T1 construct: expressed in transfected cells; host or cells: CHO cells infected using the Semliki virus expression system; membrane suspension
T1 sequence (P25103 whole entry): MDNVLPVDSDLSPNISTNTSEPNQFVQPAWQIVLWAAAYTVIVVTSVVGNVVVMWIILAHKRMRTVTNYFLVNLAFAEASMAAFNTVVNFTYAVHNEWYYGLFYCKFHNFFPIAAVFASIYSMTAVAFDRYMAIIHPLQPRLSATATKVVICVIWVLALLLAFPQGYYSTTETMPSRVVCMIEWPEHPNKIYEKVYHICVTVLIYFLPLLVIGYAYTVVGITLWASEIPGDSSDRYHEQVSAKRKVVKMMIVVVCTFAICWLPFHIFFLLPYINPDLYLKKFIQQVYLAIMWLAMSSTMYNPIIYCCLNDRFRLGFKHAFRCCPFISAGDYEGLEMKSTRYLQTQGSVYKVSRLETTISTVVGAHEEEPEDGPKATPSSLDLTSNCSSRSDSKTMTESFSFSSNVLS
In words: NK1 receptor binding assay, [3H]substance P displacement. The conditions noted are these: affinity to the NK-1 receptor; human NK1 receptors in CHO cells; [3H]substance P 0.6 nM. On the procedure:
The affinity of test compounds for the NK1 receptor was evaluated at human NK1 receptors in CHO cells infected with the human NK1 receptor (using the Semliki virus expression system) and radiolabelled with [^3H]substance P (final concentration 0.6 nM). Binding assays were performed in HEPES buffer (50 mM, pH 7.4) containing BSA (0.04%) leupeptin (8 μg/ml), MnCI2 (3 mM) and phosphoramidon (2 μM). Binding assays consisted of 250 μl of membrane suspension (1.25×10^5 cells/assay tube), […] of buffer of displacing agent and 125 μl of [^3H]substance P. Displacement curves were determined with at least seven concentrations of the compound. The assay tubes were incubated for 60 min at room temperature after which time the tube contents were rapidly filtered under vacuum through GF/C filters presoaked for 60 min with PEI (0.3%) with 2×2 ml washes of HEPES buffer (50 mM, pH 7.4). The radioactivity retained on the filters was measured by scintillation counting. All assays were performed in triplicate in at least 2 separate experiments.
The Ki is the equilibrium dissociation constant of an inhibitor or competing ligand from its target. The low end stands for tighter binding, the high end for weaker binding. With `Cc1ccccc1-c1cc(NC(=O)C2CC2)ncc1N(C)C(=O)C(C)(C)c1cc(C(F)(F)F)cc(C(F)(F)F)c1` [Example 12, Cyclopropanecarboxylic acid (5-{[2-(3,5-bis-trifluoromethyl-phenyl)-2-methyl-propionyl]-methyl-amino}-4-o-tolyl-pyridin-2-yl)-amide], the Ki is 2.24 nM.
The same measure, in the same setting: then `CN(Cc1cc(C(F)(F)F)cc(C(F)(F)F)c1)C(=O)c1cnc(N2CCC(O)CC2)cc1-c1ccccc1Cl` [Example 6, 4′-(2-Chloro-phenyl)-4-hydroxy-3,4,5,6-tetrahydro-2H-[1,2′]bipyridinyl-5′-carboxylic acid (3,5-bis-trifluoromethyl-benzyl)-methyl-amide], with 0.661 nM; and `Cc1ccccc1-c1cc(N2CCC(OCCO)CC2)ncc1C(=O)N(C)Cc1cc(C(F)(F)F)cc(C(F)(F)F)c1` [Example 4, 4-(2-Hydroxy-ethoxy)-4′-o-tolyl-3,4,5,6-tetrahydro-2H-[1,2′]bipyridinyl-5′-carboxylic acid (3,5-bis-trifluoromethyl-benzyl)-methyl-amide], with 0.933 nM.
Turning to `CC(=O)Nc1cc(-c2ccccc2C)c(N(C)C(=O)C(C)(C)c2cc(C(F)(F)F)cc(C(F)(F)F)c2)cn1` [Example 10, N-(6-Acetylamino-4-o-tolyl-pyridin-3-yl)-2-(3,5-bis-trifluoromethyl-phenyl)-N-methyl-isobutyramide], the inhibitory constant (Ki) was 2.51 nM.
Still for that read-out and setting: then `Cc1ccccc1-c1cc(N(C)C(=O)C2CC2)ncc1N(C)C(=O)C(C)(C)c1cc(C(F)(F)F)cc(C(F)(F)F)c1` [Example 13, Cyclopropanecarboxylic acid (5-{[2-(3,5-bis-trifluoromethyl-phenyl)-2-methyl-propionyl]-methyl-amino}-4-o-tolyl-pyridin-2-yl)-methyl-amide], with 1.35 nM; and `Cc1ccccc1-c1cc(-n2cncn2)ncc1C(=O)N(C)Cc1cc(C(F)(F)F)cc(C(F)(F)F)c1` [Example 1, N-(3,5-Bis-trifluoromethyl-benzyl)-N-methyl-4-o-tolyl-6-[1,2,4]triazol-1-yl-nicotinamide], with 3.98 nM; and `Cc1ccccc1-c1cc(NCCO)ncc1N(C)C(=O)C(C)(C)c1cc(C(F)(F)F)cc(C(F)(F)F)c1` [Example 7, 2-(3,5-Bis-trifluoromethyl-phenyl)-N-[6-(2-hydroxy-ethylamino)-4-o-toyl-pyridin-3-yl]-N-methyl-isobutyramide], with 0.692 nM.
For the molecule `CN(C(=O)C(C)(C)c1cc(C(F)(F)F)cc(C(F)(F)F)c1)c1cnc(NCCO)cc1-c1ccccc1Cl` [Example 8, 2-(3,5-Bis-trifluofomethyl-phenyl)-N-[4-(2-chloro-phenyl)-6-(2-hydroxy-ethylamino)-pyridin-3-yl]-N-methyl-isobutyramide], the inhibition constant Ki is 0.724 nM.
On the same count and under the same terms, the figure for `Cc1ccccc1-c1cc(-n2ccnc2)ncc1N(C)C(=O)C(C)(C)c1cc(C(F)(F)F)cc(C(F)(F)F)c1` [Example 14, 2-(3,5-Bis-trifluoromethyl-phenyl)-N-(6-imidazol-1-yl-4-o-tolyl-pyridin-3-yl)-N-methyl-isobutyramide] is 2.24 nM; for `Cc1ccccc1-c1cc(N2CC[C@@H](O)C2)ncc1C(=O)N(C)Cc1cc(C(F)(F)F)cc(C(F)(F)F)c1` [Example 5, (R)-N-(3,5-Bis-trifluoromethyl-benzyl)-6-(3-hydroxy-pyrrolidin-1-yl)-N -methyl-4-o-tolyl-nicotinamide] it is 0.575 nM.
On the same count and under the same terms, the figure for `Cc1ccccc1-c1cc(NCCO)ncc1C(=O)N(C)Cc1cc(C(F)(F)F)cc(C(F)(F)F)c1` [Example 2, N-(3,5-Bis-trifluoromethyl-benzyl)-6-(2-hydroxy-ethylamino)-N-methyl-4-o-tolyl-nicotinamide] is 1.35 nM.
In the case of `Cc1ccccc1-c1cc(N2CCC(O)CC2)ncc1C(=O)N(C)Cc1cc(C(F)(F)F)cc(C(F)(F)F)c1` [Example 3, 4-Hydroxy-4′-o-tolyl-3,4,5,6-tetrahydro-2H-[1,2′]bipyridinyl-5′-carboxylic acid (3,5-bis-trifluoromethyl-benzyl)-methyl-amide], the Ki was 1.23 nM.
On the same count and under the same terms, the figure for `Cc1ccccc1-c1cc(N2C=COCC2)ncc1N(C)C(=O)C(C)(C)c1cc(C(F)(F)F)cc(C(F)(F)F)c1` [Example 9, 2-(3,5-Bis-trifluoromethyl-phenyl)-N-[6-(2,3-dihydro-[1,4]oxazin-4-yl)-4-o-tolyl-pyridin-3-yl]-N-methyl-isobutyramide] is 1.48 nM.
Molecule `CC(=O)N(C)c1cc(-c2ccccc2C)c(N(C)C(=O)C(C)(C)c2cc(C(F)(F)F)cc(C(F)(F)F)c2)cn1` [Example 11, N-[6-(Acetyl-methyl-amino)-4-o-tolyl-pyridin-3-yl]-2-(3,5-bis-trifluoromethyl-phenyl)-N-methyl-isobutyramide] had an inhibition constant Ki of 1.95 nM.
